Laboratory results reported in patent publication US10344064B2, “Engineered potent cytotoxic stapled BH3 peptides” (The Trustees of Princeton University, priority 2012, dated 2019).
“Also recorded” adds a separate entry of the source. Like-named read-outs stand apart in the source and are kept apart here. Bridges are numbered along the chain shown (N, C = ends). Where no end group is shown, it is not given here. [ ]: non-standard residue; d: D form. S5 = C=CCCC[C@](C)(N)C(=O)O

Legend:
HeLa cells [1] = assay: TUNEL assay; format: cell-based, human; settings: 5 μM, 5 hours
Procedure: (§1) To study the uptake of fluorescein-labeled M2-4 stapled peptide (Fl-M2-4), HeLa cells were cultured in DMEM with 10% FBS and antibiotics as described above. The peptide was added to a final concentration of 5 μM in fresh DMEM without serum supplementation. Cellular uptake of FI-M2-4 was visualized using a Hamamatsu Orca CCD camera attached to a Nikon Eclipse Ti microscope after 2.5 hours of incubation. Cells were fixed using 4% paraformaldehyde and counterstained with Hoechst 33342. For the TUNEL assay, HeLa cells were plated on a fibronectin-treated coverslip and incubated with 5 μM unlabeled M2-4 peptide for 5 hours. The cells were then fixed using 4% paraformaldehyde and permeabilized with 0.25% Triton X-100 in PBS. The TUNEL assay (Click-it Alexa-Fluor 594, Invitrogen) was carried out according to the manufacturer's recommendations including counterstaining cell nuclei with Hoechst 33342. Images were acquired using a Hamamatsu Orca CCD camera attached to a Nikon Eclipse Ti microscope. All images were processed with ImageJ software.

HeLa cells [2] = assay: Peptide uptake by fluorescence microscopy; format: cell-based, human; settings: 5 μM, imaged after 2.5 hours
Procedure: as §1

MCF7 = settings: cisplatin, values from reference 33-36; cited from earlier work
MDA231 = settings: cisplatin, values from reference 33-36; cited from earlier work
PC3 = settings: cisplatin, values from reference 33-36; cited from earlier work
HeLa = settings: cisplatin, values from reference 33-36; cited from earlier work
[3] = system: HeLa, PC3, MCF7 and MDA231 cell lines; assay: MTT cytotoxicity assay of stapled peptides, all four cancer cell lines; format: cell-based, human; settings: for cytotoxicity against the four cancer cell lines (in words): stapled pseudo-wild-type peptide
Procedure: (§2) HeLa, PC3, MCF7 and MDA231 cell lines were used to determine IC50 of each stapled peptide. All cells were cultured at 37° C. supplemented with 5% CO2. HeLa cells and PC3 cells were maintained in DMEM and RPMI 1640 media, respectively, supplemented with 10% FBS, 50 units/mL penicillin, and 50 μg/mL streptomycin. MCF7 cells were maintained in DME/F12 media with 2% FBS, 10 μg/ml insulin, and 50 μg/ml gentamicin. MDA-MB-231 cells were maintained in DME/F12 media supplemented with 10% FBS, 10 μg/ml insulin, and 50 μg/ml gentamicin. The cytotoxicity of stapled peptides was determined using an MTT (3-(4,5-Dimethylthiazol-2-yl)-2,5-diphenyltetrazolium bromide assay (Sigma). Cells were plated at a density of 1.5×10^4 cells per well in a 96-well plate. After 24 hours, the medium was replaced with serum-free medium containing stapled peptides. Serum was added after 4 hours, and cells were incubated for an additional 44 hours. After this incubation, 0.5 mg/ml of MTT was added to each well and incubated for 4 hours. The medium was aspirated and 200 μL of dimethyl sulfoxide (DMSO) was added to each well to solubilize the formazan crystals. The absorbance was measured at 570 nm with 690 nm as an internal reference using a GloMax-Multi Detection System (Promega). Experiments were performed three times independently with biological replicates. A four-parameter model was used to fit the experimental data and extract the IC50 value from killing assays, where log [ ] was the log value of the stapled peptide concentration. [formula] During fitting, “top” was always fixed at 100% viability, while “bottom,” log [IC50] and Hill slope were allowed to vary. In all cases, “bottom” came out to be 0. The R^2 values of all fits were above 0.9, while the majority was above 0.95.

MCF7 cells = assay: MTT cytotoxicity assay of stapled peptides, MCF7; format: cell-based, human; settings: for cytotoxicity toward MCF7 cells (in words): stapled peptides, at the concentrations tested
Procedure: as §2

HeLa cells [4] = format: cell-based, human
Procedure: as §2

PC3 cells = format: cell-based, human
Procedure: as §2

MDA231 cells = format: cell-based, human
Procedure: as §2

A1 = assay: Apparent Kd by E. coli surface display and flow cytometry, A1; format: binding; settings: for Kd: Table 3, apparent Kd, unstapled 14-mer displayed on E. coli (eCPX); for affinity improvement toward A1: relative to wild-type Bim 14-mer
Procedure: (§3) All binding assays were performed using MC1061 strain. Briefly, a 5 mL culture of a library sample or individual variant was grown to OD600˜0.6, and induced with arabinose (0.2%) at RT for 2.5 hours. Cells were pelleted (1 mL culture, 6000 rpm, 5 min) and resuspended in 1 mL PBS. A portion of the cell suspension (50 μL) was mixed with the desired concentration of pro-survival protein to a total volume of 500 μL. The mixture was allowed to rotate at room temperature for 1 hour for equilibrium binding. The cells were pelleted again (6000 rpm, 20 min), resuspended with 100 μL of 50 nM streptavidin-phycoerythrin (SAPE), and incubated on ice in the dark for 30 min. After a final centrifugation, the cell pellets were stored on ice and resuspended in 2 mL of PBS for flow cytometry measurements. A Partec CyFlow ML Flow Cytometer equipped with a 488 nm laser was used to analyze the cells. A FACSVantage SE cell sorter was used for cell sorting in single cell mode.
(§4) A two parameter model was used to extract apparent binding affinity (Kd) from flow cytometry binding experiments.

Bcl-2 = molecular target: T1, Bcl-2 (Homo sapiens, UniProt P10415); assay: Apparent Kd by E. coli surface display and flow cytometry, Bcl-2; format: binding; settings: compared with wild-type peptide
T1 construct: made in house; host or cells: E. coli BL21
T1 sequence (P10415 whole entry): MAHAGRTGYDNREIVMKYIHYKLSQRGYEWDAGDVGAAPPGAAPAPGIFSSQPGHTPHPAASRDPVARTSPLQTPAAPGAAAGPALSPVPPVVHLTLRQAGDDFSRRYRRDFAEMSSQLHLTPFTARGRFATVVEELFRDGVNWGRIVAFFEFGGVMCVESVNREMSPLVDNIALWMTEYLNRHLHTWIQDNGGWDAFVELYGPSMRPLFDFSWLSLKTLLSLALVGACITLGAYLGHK
Procedure: as §3, §4

Mcl-1 = molecular target: T2, Mcl-1 (Homo sapiens, UniProt Q07820); assay: Apparent Kd by E. coli surface display and flow cytometry, Mcl-1; format: binding
T2 construct: made in house; host or cells: E. coli BL21
T2 sequence (Q07820 whole entry): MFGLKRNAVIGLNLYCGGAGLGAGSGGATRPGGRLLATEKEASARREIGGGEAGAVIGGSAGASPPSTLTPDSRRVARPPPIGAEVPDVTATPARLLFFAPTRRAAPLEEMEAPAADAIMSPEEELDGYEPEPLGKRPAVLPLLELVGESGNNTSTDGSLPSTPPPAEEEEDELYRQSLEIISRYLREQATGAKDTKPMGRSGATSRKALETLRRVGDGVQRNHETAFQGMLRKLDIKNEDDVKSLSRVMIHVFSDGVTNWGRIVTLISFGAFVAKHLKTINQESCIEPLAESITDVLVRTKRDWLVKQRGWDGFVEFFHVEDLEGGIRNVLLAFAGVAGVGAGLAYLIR
Procedure: as §3, §4

Bcl-w = molecular target: T3, Bcl-w (Homo sapiens, UniProt Q92843); assay: Apparent Kd by E. coli surface display and flow cytometry, Bcl-w; format: binding; settings: compared with wild-type peptide
T3 construct: made in house; host or cells: E. coli BL21
T3 sequence (Q92843 1-193): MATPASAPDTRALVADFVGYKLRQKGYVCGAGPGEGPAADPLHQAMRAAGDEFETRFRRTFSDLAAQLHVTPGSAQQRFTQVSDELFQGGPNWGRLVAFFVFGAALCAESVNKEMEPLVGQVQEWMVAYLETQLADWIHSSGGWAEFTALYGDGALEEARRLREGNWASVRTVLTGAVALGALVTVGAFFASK
Procedure: as §3, §4

Bcl-xL = molecular target: T4, Bcl-xL (Homo sapiens, UniProt Q07817); assay: Apparent Kd by E. coli surface display and flow cytometry, Bcl-xL; format: binding; settings: for binding to Bcl-xL (in words): compared with wild-type peptide; for increase in apparent affinity toward Bcl-xL: relative to wild-type Bim 14-mer
T4 construct: made in house; host or cells: E. coli BL21
T4 sequence (Q07817 whole entry): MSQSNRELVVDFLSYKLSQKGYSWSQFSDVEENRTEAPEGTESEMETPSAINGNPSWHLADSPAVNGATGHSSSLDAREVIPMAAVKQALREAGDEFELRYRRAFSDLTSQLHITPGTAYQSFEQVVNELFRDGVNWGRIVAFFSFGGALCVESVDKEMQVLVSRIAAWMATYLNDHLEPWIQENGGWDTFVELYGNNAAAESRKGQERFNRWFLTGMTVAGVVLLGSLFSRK
Procedure: as §3, §4

[5] = Table 2, apparent Kd, unstapled 14-mer displayed on E. coli (eCPX), read-out: Kd vs. Mcl-1
[6] = Table 3, apparent Kd, unstapled 14-mer displayed on E. coli (eCPX), read-out: Kd (nM) Mcl-1

stapled M2-4: stapled version of M2-4; positions 8 and 12 replaced by olefinic amino acids and crosslinked (WLAQLLR[S5]IGD[S5]IN-NH2; staple 8-12)
apoptosis / DNA fragmentation by TUNEL (in words) (HeLa cells [1]): DNA fragmentation | apoptosis / DNA fragmentation by TUNEL (in words) (HeLa cells [1]; listed as M2-4 stapled peptide): causes apoptosis | cellular uptake (in words) (HeLa cells [2]): taken up

N.N.[Cl][Pt][Cl] [Cisplatin, cisplatin]
IC50 (MCF7): 5 µM | IC50 (MDA231): ~10 µM | IC50 (PC3): 5.6 µM | IC50 (HeLa): 1.34 µM

CC[C@H](C)[C@H](NC(=O)[C@@H](N)Cc1c[nH]c2ccccc12)C(=O)N[C@@H](C)C(=O)N[C@@H](CCC(N)=O)C(=O)N[C@@H](CCC(N)=O)C(=O)N[C@@H](CC(C)C)C(=O)N[C@@H](CCCNC(=N)N)C(=O)N[C@@]1(C)CCCC=CCCC[C@@](C)(C(=O)N[C@@H](Cc2ccccc2)C(=O)N[C@@H](CC(N)=O)C(N)=O)NC(=O)[C@H](CC(=O)O)NC(=O)CNC(=O)[C@H]([C@@H](C)CC)NC1=O (single isomer, unassigned) [stapled E151Q]
IC50 [3]: 10 to 150 µM | cytotoxicity against the four cancer cell lines (in words) [3]: only modest cytotoxicity; also recorded: measurable but modest cytotoxicity | cytotoxicity against the four cancer cell lines (in words) ([3]; listed as pseudo-wild-type Bim peptide): only modest cytotoxicity

CC(C)C[C@H](NC(=O)[C@H](CCC(N)=O)NC(=O)[C@H](C)NC(=O)[C@H](CC(C)C)NC(=O)[C@@H](N)Cc1c[nH]c2ccccc12)C(=O)N[C@@H](CC(C)C)C(=O)N[C@@H](CCCNC(=N)N)C(=O)N[C@@]1(C)CCCC=CCCC[C@@](C)(C(=O)N[C@@H](Cc2ccccc2)C(=O)N[C@@H](CC(N)=O)C(N)=O)NC(=O)[C@H](CC(=O)O)NC(=O)CNC(=O)[C@H](Cc2ccc(O)cc2)NC1=O [X2-8, Trp-Leu-Ala-Gln-Leu-Leu-Arg-Arg-Tyr-Gly-Asp-Glu-Phe-Asn]
cytotoxicity toward MCF7 cells (in words) (MCF7 cells): no cytotoxicity | IC50 (HeLa cells [4]): 55 µM | IC50 (PC3 cells): 14.9 µM | IC50 (MDA231 cells): 18.3 µM | Kd (A1): 40.5 nM

CC[C@H](C)[C@@H]1NC(=O)[C@@](C)(NC(=O)[C@H](CCCNC(=N)N)NC(=O)[C@H](CC(C)C)NC(=O)[C@H](CC(C)C)NC(=O)[C@H](CCC(N)=O)NC(=O)[C@H](C)NC(=O)[C@@H](NC(=O)[C@@H](N)Cc2c[nH]c3ccccc23)C(C)C)CCCC=CCCC[C@@](C)(C(=O)N[C@H](C(=O)N[C@@H](CC(N)=O)C(N)=O)C(C)C)NC(=O)[C@H](CC(=O)O)NC(=O)CNC1=O [M2-2, Trp-Val-Ala-Gln-Leu-Leu-Arg-Arg-Ile-Gly-Asp-Glu-Val-Asn]
binding to Bcl-2 (in words) (Bcl-2): lost the ability to bind | IC50 (MCF7 cells): 5.7 µM | IC50 (HeLa cells [4]): 6.1 µM | IC50 (PC3 cells): 4.7 µM | IC50 (MDA231 cells): 3.7 µM | Kd (Mcl-1; [5]): 5.8 nM | Kd (Mcl-1; [6]): 5.8 nM | Kd (Mcl-1; displayed unstapled 14-mer, read-out: apparent Kd against Mcl-1): 5.8 nM | increase in apparent affinity toward Mcl-1 (Mcl-1; relative to wild-type Bim 14-mer): 6 fold | IC50 [3]: < 6.2 µM | Kd (A1): 9.99 nM | affinity improvement toward A1 (A1): 3 fold | binding to Bcl-w (in words) (Bcl-w): lost the ability to bind | binding to Bcl-xL (in words) (Bcl-xL): lost the ability to bind

CC[C@H](C)[C@H](NC(=O)[C@@H](N)Cc1c[nH]c2ccccc12)C(=O)N[C@@H](C)C(=O)N[C@@H](CCC(N)=O)C(=O)N[C@@H](CCC(N)=O)C(=O)N[C@@H](CC(C)C)C(=O)N[C@@H](CCCNC(=N)N)C(=O)N[C@@]1(C)CCCC=CCCC[C@@](C)(C(=O)N[C@@H](Cc2ccccc2)C(=O)N[C@@H](CC(N)=O)C(N)=O)NC(=O)[C@H](CC(=O)O)NC(=O)CNC(=O)[C@H]([C@@H](C)CC)NC1=O (single isomer, unassigned) [E151Q]
IC50 (MCF7 cells): 35.7 µM | IC50 (HeLa cells [4]): 150 µM | IC50 (PC3 cells): 9.5 µM | IC50 (MDA231 cells): 20 µM | Kd (A1): 29.6 nM | increase in apparent affinity toward Bcl-xL (Bcl-xL): 5 fold

CC(C)C[C@H](NC(=O)[C@H](Cc1c[nH]c2ccccc12)NC(=O)[C@H](CCC(N)=O)NC(=O)[C@H](C)NC(=O)[C@@H](NC(=O)[C@@H](N)Cc1c[nH]c2ccccc12)C(C)C)C(=O)N[C@@H](CCCNC(=N)N)C(=O)N[C@@]1(C)CCCC=CCCC[C@@](C)(C(=O)N[C@@H](Cc2ccccc2)C(=O)N[C@@H](CC(N)=O)C(N)=O)NC(=O)[C@H](CC(=O)O)NC(=O)CNC(=O)[C@H](Cc2c[nH]c3ccccc23)NC1=O [X2-3, Trp-Val-Ala-Gln-Trp-Leu-Arg-Arg-Trp-Gly-Asp-Glu-Phe-Asn]
cytotoxicity toward MCF7 cells (in words) (MCF7 cells): no cytotoxicity | IC50 (HeLa cells [4]): 51.3 µM | IC50 (PC3 cells): 17.9 µM | IC50 (MDA231 cells): 10.5 µM | Kd (A1): 30.2 nM | increase in apparent affinity toward Bcl-xL (Bcl-xL): 25 fold

CC[C@H](C)[C@@H]1NC(=O)[C@@](C)(NC(=O)[C@H](CCCNC(=N)N)NC(=O)[C@H](CC(C)C)NC(=O)[C@H](CC(C)C)NC(=O)[C@H](CCC(N)=O)NC(=O)[C@H](C)NC(=O)[C@H](CC(C)C)NC(=O)[C@@H](N)Cc2c[nH]c3ccccc23)CCCC=CCCC[C@@](C)(C(=O)N[C@H](C(=O)N[C@@H](CC(N)=O)C(N)=O)[C@@H](C)CC)NC(=O)[C@H](CC(=O)O)NC(=O)CNC1=O [M2-4, Trp-Leu-Ala-Gln-Leu-Leu-Arg-Arg-Ile-Gly-Asp-Glu-Ile-Asn]
binding to Bcl-2 (in words) (Bcl-2): maintaining wild-type affinity | decrease in IC50 relative to the pseudo-wild-type peptide (HeLa cells [4]; HeLa cells, stapled peptides): ~150 fold | Kd (Mcl-1; [5]): 9.85 nM | Kd (Mcl-1; [6]): 9.85 nM | IC50 [3]: < 6.2 µM | Kd (A1): 4.18 nM | affinity improvement toward A1 (A1): 6 fold | binding to Bcl-w (in words) (Bcl-w): maintaining wild-type affinity | binding to Bcl-xL (in words) (Bcl-xL): maintaining wild-type affinity

WIAQELRRIGDEFN [WT, reference compound]
Kd (A1): 26.9 nM
